Experiments:
[1] = tested on: APPWT-transfected primary human CNS neurons; test: Neuritic beading/degeneration in APPWT-transfected primary human neurons; format: cell-based; details: NWL 100 μM, Z-VEID-fmk 5 μM
Method: Immunofluorescence on human neuron cultures: Primary human neurons were pre-treated 2 h and serum-deprived in the presence of 100 μM NWL-117, 100 μM NWL-154, or 5 μM Z-VEID-fmk (Biomol, Plymouth meeting, PA, USA) for 24 h. Following treatment, human neurons were washed once with warm PBS, fixed for 20 min at room temperature with 4% paraformaldehyde (Sigma, Oakville, ON, CA)/4% sucrose (BioRad, Mississauga, ON, CA) for TubΔCasp6 or 2% formaldehyde (Thermo Fisher Scientific, Waltham, MA, USA)/0.2% glutaraldehyde (Sigma, Oakville, ON, CA) for pBudEGFP or pBudEGFP/APP^WT-transfected neurons, incubated in permeabilization buffer (0.1% Triton X-100, 0.1 sodium citrate) for 1 min on ice, washed with PBS, blocked for 20 min at room temperature with 10% goat serum (Sigma, Oakville, ON, CA), and incubated with primary antibodies diluted in 10% goat serum in PBS overnight at 4 °C in a humid chamber. The glass coverslips were washed with PBS, and incubated with goat anti-rabbit secondary antibody coupled to Alexa 488 (Molecular Probes, Eugene, OR, USA) or Cy3 (GE Healthcare Life Sciences, Baie D’Urfe, QC, CA) and Hoechst 33342 (ImmunoChemistry, Bloomington, MN, USA) at 1 μg/mL for 2 h at room temperature. The coverslips were washed with PBS and rinsed in Milli-Q water before mounting in fluoromount (Dako, Burlington, ON, CA). Images were acquired by fluorescence microscopy and quantified using the ImageJ software (NIH, Bethesda, MD, USA) for TubΔCasp6 and manually counted for transfected EGFP(+)-neurons. Time lapse-imaging by live fluorescence microscopy: Primary human neurons were transfected with gold beads coated with pBudEGFP or pBudEGFP/APP^WT using a Helios Gene gun (BioRad, Mississauga, ON, CA). Briefly, cells were pre-treated with 100 μM NWL inhibitors or 5 μM Z-VEID-fmk for 2 h. The media was removed and the neurons were shot at 100 psi. The media was quickly replaced with the inhibitors present. The plasmid was expressed for 16 h before setting up the fluorescence microscope (Nikon Eclipse Ti) to acquire 20 images per condition every hour for 72 h at 37 °C with 5% CO2. The images were analyzed by counting the total number of neurons (50–100 neurons per condition per independent experiment), and the number of beaded, swollen soma, and healthy neurons. In addition, the time at which cells beaded was noted. Phase contrast microscopy: HCT116 cells, plated at a density of 1×10^5 cells/well and human neurons, plated at a density of 6×10^6 cells/well on poly-L-lysine were treated with PBS, 100 μM NWL-117, 100 μM NWL-154, or 2 μM staurosporine (Biomol, Plymouth meeting, PA, USA) for 24 h. Images were acquired with the Nikon Eclipse Ti microscope and the NIS-Elements (Version 3.10) software.

[2] = tested on: mammals; details: fmk moiety metabolized into fluorocitrate; cited from earlier work
[3] = tested on: recombinant Casp6; set-up: method as in PMID 9092497; details: read-out: Michaelis-Menten constant (Km) for recombinant Casp6; cited from earlier work
[4] = tested on: Caspase-3; set-up: method as in PMID 9092497; details: read-out: Michaelis-Menten constant (Km) for Caspase-3; cited from earlier work
[5] = tested on: Casp6 (VEID-aminoluciferin cleavage); set-up: method as in PMID 25616965; details: read-out: inhibition of cleavage of VEID-aminoluciferin; cited from earlier work
[6] = tested on: Caspase-5; set-up: method as in PMID 25616965; details: cited from earlier work
[7] = tested on: Casp6 (mutant huntingtin cleavage); set-up: method as in PMID 25616965; details: read-out: IC50 against mutant huntingtin cleavage (FRET); cited from earlier work

benzyloxycarbonyl-Val-Glu-Ile-Asp-fmk [Z-VEID-fmk, reference compound]
neuritic beading ([1]; APPWT/EGFP co-expression, 48 h): prevented neuritic beading
percentage of beaded neurons, fold of EGFP-alone ([1]; live imaging 72 h, APPWT vehicle 1.52, EGFP-alone 1.00, mean ± SEM): 0.97 fold
toxicity to mammals [2]: toxic to mammals

VEID: Val-Glu-Ile-Asp peptide substrate sequence preferred by Casp6 (printed: Val-Glu-Ile-Asp)
Km [3]: 30 µM
Km [4]: 250 µM

ED11: 24 amino acid peptide (GRKKRRQRRRPPQSSEIVLDGTDN) containing HIV TAT-peptide and huntingtin sequences; Casp6 inhibitor
IC50 [5]: > 10000 nM
Caspase-5 activity on the FRET assay [6]: significant enhancement
IC50 [7]: 12.1 nM

Reference: publication PMC5329948, “Caspase vinyl sulfone small molecule inhibitors prevent axonal degeneration in human neurons and reverse cognitive impairment in Caspase-6-overexpressing mice” (Molecular Neurodegeneration, 2017)
